One may read the IC50 as the concentration at which inhibition is half-maximal.

The structures appear in SMILES notation. Structures can show the parent of a compound that is named as a salt.

The assay deals with DGAT. In words: DGAT Phospholipid FlashPlate Assay. It is filed as biochemical. Conditions: DGAT pellet, DAG-coated PL-FlashPlate, 14C-Pal-CoA, 37° C. for 1 hour; read-out: DGAT Inhibition Activity IC50. Put shortly:
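DGAT membrane pellet (0.13 mg protein/ml diluted stock) reacted 1 h at 37 °C with 14C-palmitoyl-CoA (8.3 μM diluted stock) on FlashPlates coated with 500 μM DAG, in Tris-HCl pH 7.5, 100 mM NaCl. Scintillation counts converted to % inhibition; IC50 by 4-parameter logistic fit.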
For the compound `CCn1c(C(=O)Nc2ccc(N3CCN(c4ccc(C(=O)O)cc4)CC3)cc2)cc2c(Cl)c(Cl)ccc21` [Example 70, 4-(4-{4-[(4,5-Dichloro-1-ethyl-1H-indole-2-carbonyl)-amino]-phenyl}-piperazin-1-yl)-benzoic acid], the IC50 was found to be 319 nM.

With `CCn1c(C(=O)Nc2ccc(N3CCN(C(=O)OC(C)(C)C)CC3)nc2)cc2c(C(F)(F)F)cccc21` [Example 14, 4-{5-[(1-Ethyl-4-trifluoromethyl-1H-indole-2-carbonyl)-amino]-pyridin-2-yl}-piperazine-1-carboxylic acid tert-butyl ester], the IC50 was found to be 433 nM.

Turning to `CCn1c(C(=O)Nc2ccc(N3CCN(C(=O)[C@H]4CC[C@H](C(=O)OCc5ccccc5)CC4)CC3)nc2)cc2c(OC)cccc21` [Example 27, trans-4-(4-{5-[(1-Ethyl-4-methoxy-1H-indole-2-carbonyl)-amino]-pyridin-2-yl}-piperazine-1-carbonyl)-cyclohexanecarboxylic acid benzyl ester], the IC50 was found to be 826 nM.

On to `CCCOc1cccc2c1cc(C(=O)Nc1ccc(N3CCN(C(=O)OC(C)(C)C)CC3)nc1)n2CC` [Example 10, 4-{5-[(1-Ethyl-4-propoxy-1,1-indole-2-carbonyl)-amino]-pyridin-2-yl}-piperazine-1-carboxylic acid tert-butyl ester], for which the IC50 worked out at 328 nM.

`CCOc1cccc2c1cc(C(=O)Nc1ccc(N3CCN(C(=O)CC4SC(=O)NC4=O)CC3)cc1)n2CC` (stereo not shown) [Example 68, 4-Ethoxy-1-ethyl-1H-indole-2-carboxylic acid (4-{4-[2-(2,4-dioxo-thiazolidin-5-yl)-acetyl]-piperazin-1-yl}-phenyl)-amide hydrochloride]: the IC50 is 289 nM.

Take `CCOc1cccc2c1cc(C(=O)Nc1ccc(O[C@H]3CCN(c4ccc(C(=O)O)cc4)C3)cc1)n2CC` [Example 67]: the IC50 stood at 296 nM.

On to `CCn1c(C(=O)Nc2ccc(N3CCN(C(=O)CC(C(=O)O)C4CCCCC4)CC3)cc2)cc2c(Cl)c(Cl)ccc21` (stereo not shown) [Example 63, 2-Cyclohexyl-4-(4-{4-[(4,5-dichloro-1-ethyl-1H-indole-2-carbonyl)-amino]-phenyl}-piperazin-1-yl)-4-oxo-butyric acid hydrochloride], for which the IC50 is 351 nM.

For the origin of these results see US8124766B2, “Inhibitors of diacylglycerol acyltransferase” (Madrigal Pharmaceuticals, Inc., priority 2008, dated 2012).
